Measured values as given in publication PMC12717099, “Peptidoglycan recruitment by a penicillin binding protein” (Nature Communications, 2025).

Legend:
[1] = tested on: E. faecium D344SRF pCWR624Δpbp5_pbp5_V2; test: MIC by broth microdilution, pbp5_V2; format: cell-based, Enterococcus faecium; settings: strain pbp5_V2 (N523A_Q627A); 37 °C, 20 h; n=3
Description: (§1) E. faecium strains were streaked fresh from −80 °C stored glycerol stocks onto brain heart infusion (BHI) agar plates and incubated for 18 h at 37 °C. Strains harboring the plasmid derivatives were grown under antibiotic pressure on agar plates containing kanamycin at 1500 µg/ml. A single colony was inoculated into BHI or BHI-kanamycin (1500 µg/ml) for overnight cultures (18 h).

[2] = tested on: E. faecium D344SRF pCWR624Δpbp5_pbp5_V6; test: MIC by broth microdilution, pbp5_V6; format: cell-based, Enterococcus faecium; settings: strain pbp5_V6 (E284A_E291A_S294A_N295A); 37 °C, 20 h; n=3
Description: (§2) The synthetic genes were purchased from GeneWiz (South Plainfield, NJ). The ribosome binding site sequence AGGAGG (Shine-Dalgarno), and a string of five A’s followed by the sequence […], that corresponds to the first 15 bp found in pbp5 from E. faecium C68 were added upstream of the START codon. The terminator sequence […] was added downstream of the STOP codon. BamHI restriction sites were added to the flanking 5′ and 3′ ends. The synthetic genes were inserted into the vector pCWR624Δpbp5. This vector was derived from pCWR624[10], in which the pbp5 gene from D366 was excised by digestion with BamHI followed by re-ligation of the vector, allowing subsequent insertion of modified synthetic pbp5s into the BamHI site downstream of ftsWEfm and psr from E. faecium C68[10]. The synthetic genes were inserted in a BamHI site located downstream of psr. The proper orientation was confirmed by PCR amplification using the forward primer OR_pbp5_FOR_1 (5′-[…]-3′) and the reverse primer OR_pbp5_REV_1 (5′-[…]-3′). Plasmids were sequence verified for the specific binding site mutations. The resulting constructions were electroporated into the natural pbp5(-) mutant E. faecium D344SRF with a selection on brain heart infusion agar (BHI) plates containing kanamycin (1500 µg/ml).
as §1
(§3) MIC determination was performed using a standard broth microdilution technique in duplicate from independent cultures. Overnight cultures were inoculated into 3 ml of BHI or BHI-kanamycin (1500 µg/ml) broth in a dilution of 1:100 and incubated until an OD600 of ~0.5 was reached. Cultures were diluted 1:1000 and inoculated into the 96-well plates with the corresponding antibiotics to be tested. Plates were incubated at 37 °C for 20 h and read by eye. […]

[3] = tested on: E. faecium D344SRF pCWR624Δpbp5_pbp5_V4; test: Disk diffusion assay, pbp5_V4; format: cell-based, Enterococcus faecium; settings: strain pbp5_V4 (D530A_L533A_W457A); 37 °C, 24 h; n=3
Description: as §2, §1
(§4) Antibiotic disks used were manufactured by BD BBL^TM. Disk diffusion assays were performed according to the Clinical and Laboratory Standards Institute (CLSI) guidance. Overnight cultures were inoculated into 3 ml of BHI or BHI-kanamycin (1500 µg/ml) broth with a dilution of 1:100 and incubated until an OD600 of ~0.5 was reached. […] The plates were incubated at 37 °C and the zones of inhibition were measured after 24 h. […]

[4] = tested on: E. faecium D344SRF pCWR624Δpbp5_pbp5_V6; test: Disk diffusion assay, pbp5_V6; format: cell-based, Enterococcus faecium; settings: strain pbp5_V6 (E284A_E291A_S294A_N295A); 37 °C, 24 h; n=3
Description: as §2, §1, §4

[5] = tested on: E. faecium D344SRF pCWR624 (PBP5 plasmid); test: MIC by broth microdilution, pCWR624; format: cell-based, Enterococcus faecium; settings: strain pCWR624; 37 °C, 20 h; n=3
Description: as §2, §1, §3

[6] = tested on: E. faecium D344SRF pCWR624Δpbp5_pbp5_V5; test: MIC by broth microdilution, pbp5_V5; format: cell-based, Enterococcus faecium; settings: strain pbp5_V5 (Q396A_E397A); 37 °C, 20 h; n=3
Description: as §2, §1, §3

[7] = tested on: E. faecium D344SRF pCWR624Δpbp5_pbp5_V4; test: MIC by broth microdilution, pbp5_V4; format: cell-based, Enterococcus faecium; settings: strain pbp5_V4 (D530A_L533A_W457A); 37 °C, 20 h; n=3
Description: as §2, with “The resulting constructions were electroporated into the natural pbp5(-) mutant E. faecium D344SRF with a selection on brain heart infusion agar (BHI) plates containing kanamycin (1500 µg/ml).” left out
MIC determination was performed using a standard broth microdilution technique in duplicate from independent cultures. […] Plates were incubated at 37 °C for 20 h and read by eye. […]

[8] = tested on: E. faecium D344SRF pCWR624Δpbp5_pbp5_V1; test: Disk diffusion assay, pbp5_V1; format: cell-based, Enterococcus faecium; settings: strain pbp5_V1 (N523A); 37 °C, 24 h; n=3
Description: as §2, §1, §4

[9] = tested on: E. faecium D344SRF pCWR624Δpbp5_pbp5_V2; test: Disk diffusion assay, pbp5_V2; format: cell-based, Enterococcus faecium; settings: strain pbp5_V2 (N523A_Q627A); 37 °C, 24 h; n=3
Description: as §2, §1, §4

PBP5:ceftaroline complex = test: 1D 1H STD NMR of SP2 with PBP5:ceftaroline; format: binding, Enterococcus faecium; settings: for STD amplification factor: ceftaroline-saturated PBP5, 2 s saturation
Excerpt: Total saturation time for STD measurements was 2 s.
Overlapped peaks were completely excluded from the analysis.

Compound: CO/N=C(\C(=O)N[C@@H]1C(=O)N2C(C(=O)O)=C(CSc3nc(=O)c(=O)[nH]n3C)CS[C@H]12)c1csc(N)n1 [Ceftriaxone, ceftriaxone]
- MIC (µg/ml) [Range] [1]: 50 [50-100] µg/ml
- MIC (µg/ml) [Range] [2]: > 3200 [>3200] µg/ml
- Zone Size (mm) [Range] [3]: 26 [26-28] mm
- Zone Size (mm) [Range] [4]: 0 [0] mm
- MIC (µg/ml) [Range] [5]: > 3200 [3200->3200] µg/ml
- MIC (µg/ml) [Range] [6]: > 3200 [>3200] µg/ml
- MIC (µg/ml) [Range] [7]: 25 [25-50] µg/ml
- Zone Size (mm) [Range] [8]: 0 [0] mm
- Zone Size (mm) [Range] [9]: 24 [24-26] mm

Compound: D-Lac-L-Ala-D-iGln-L-Lys(D-iAsn) [SP2]
- STD amplification factor, ref to SP1 (fraction) (PBP5:ceftaroline complex; 1H DLacβ): 0.3324
- STD, ref to SP1 (percent) (PBP5:ceftaroline complex; 1H DLacβ): 33.2419
- STD amplification factor (PBP5:ceftaroline complex; 1H DLacβ): 8.945
- STD amplification factor, ref to SP1 (fraction) (PBP5:ceftaroline complex; 1H DQ2β (first listed)): 0.6862
- STD, ref to SP1 (percent) (PBP5:ceftaroline complex; 1H DQ2β (first listed)): 68.622
- STD amplification factor (PBP5:ceftaroline complex; 1H DQ2β (first listed)): 18.4651
- STD amplification factor, ref to SP1 (fraction) (PBP5:ceftaroline complex; 1H DQ2β (second listed)): 0.9243
- STD, ref to SP1 (percent) (PBP5:ceftaroline complex; 1H DQ2β (second listed)): 92.4275
- STD amplification factor (PBP5:ceftaroline complex; 1H DQ2β (second listed)): 24.8707
- STD amplification factor, ref to SP1 (fraction) (PBP5:ceftaroline complex; 1H DQ2γ): 0.3051
- STD, ref to SP1 (percent) (PBP5:ceftaroline complex; 1H DQ2γ): 30.515
- STD amplification factor (PBP5:ceftaroline complex; 1H DQ2γ): 8.211
- STD amplification factor, ref to SP1 (fraction) (PBP5:ceftaroline complex; 1H K3α): 0.5095
- STD, ref to SP1 (percent) (PBP5:ceftaroline complex; 1H K3α): 50.9537
- STD amplification factor (PBP5:ceftaroline complex; 1H K3α): 13.7108
- STD amplification factor, ref to SP1 (fraction) (PBP5:ceftaroline complex; 1H K3β): 1.007
- STD, ref to SP1 (percent) (PBP5:ceftaroline complex; 1H K3β): 100.738
- STD amplification factor (PBP5:ceftaroline complex; 1H K3β): 27.1069
- STD amplification factor, ref to SP1 (fraction) (PBP5:ceftaroline complex; 1H K3γ): 0.5588
- STD, ref to SP1 (percent) (PBP5:ceftaroline complex; 1H K3γ): 55.8765
- STD amplification factor (PBP5:ceftaroline complex; 1H K3γ): 15.0355
- STD amplification factor, ref to SP1 (fraction) (PBP5:ceftaroline complex; 1H K3δ): 0.7209
- STD, ref to SP1 (percent) (PBP5:ceftaroline complex; 1H K3δ): 72.0884
- STD amplification factor (PBP5:ceftaroline complex; 1H K3δ): 19.3978
- STD amplification factor, ref to SP1 (fraction) (PBP5:ceftaroline complex; 1H K3ε): 0.1435
- STD, ref to SP1 (percent) (PBP5:ceftaroline complex; 1H K3ε): 14.3544
- STD amplification factor (PBP5:ceftaroline complex; 1H K3ε): 3.863
- STD amplification factor, ref to SP1 (fraction) (PBP5:ceftaroline complex; 1H LA1α): 0.3824
- STD, ref to SP1 (percent) (PBP5:ceftaroline complex; 1H LA1α): 38.2438
- STD amplification factor (PBP5:ceftaroline complex; 1H LA1α): 10.2908
- STD amplification factor, ref to SP1 (fraction) (PBP5:ceftaroline complex; 1H LA1β): 0.3611
- STD, ref to SP1 (percent) (PBP5:ceftaroline complex; 1H LA1β): 36.1111
- STD amplification factor (PBP5:ceftaroline complex; 1H LA1β): 9.717
- STD amplification factor, ref to SP1 (fraction) (PBP5:ceftaroline complex; 1H iNα,DQ2α): 0.2432
- STD, ref to SP1 (percent) (PBP5:ceftaroline complex; 1H iNα,DQ2α): 24.3189
- STD amplification factor (PBP5:ceftaroline complex; 1H iNα,DQ2α): 6.544
- STD amplification factor, ref to SP1 (fraction) (PBP5:ceftaroline complex; 1H iNβ): 0.3137
- STD, ref to SP1 (percent) (PBP5:ceftaroline complex; 1H iNβ): 31.3676
- STD amplification factor (PBP5:ceftaroline complex; 1H iNβ): 8.441
